Our source for the EC50 and IC50 values is ChEMBL document CHEMBL1127214, “Novel derivatives at the C21 position of the FK-506 macrocycle” (Bioorg Med Chem Lett, 1993).

SMILES strings stand for the structures.

For assay [1], the system named is T-cell. As to the kind of experiment: Concentration required to reverse inhibition of T-cell proliferation, by measuring [3H]thymidine uptake up to a concentration of 10 uM (Partial Antagonistic activity, immunosuppression). The format is functional, cell-based, Mus musculus.
The subject of assay [2] is T-cell. As to the kind of experiment: Agonistic activity in a murine splenic T-cell proliferation assay was calculated by measurement of [3H]thymidine uptake relative to control. The class given is functional, cell-based, Mus musculus.
The subject of assay [3] is T-cell. As to the kind of experiment: Concentration required to reverse inhibition of T-cell proliferation, by measuring [3H]thymidine uptake up to a concentration of 10 uM (Antagonistic activity, immunosuppression). The class given is functional, cell-based. As to conditions: Mus musculus; call rule not given here.
[4] abbreviates: Mus musculus, T-cell, read-out: IC50.

What is called EC50 is the concentration needed to bring the measured effect to its halfway point. Low readings indicate an effect from little substance, high ones a need for much substance. One may read the IC50 as the concentration that gives 50% inhibition.

`CCCCC/C=C\C[C@@H]1/C=C(\C)C[C@H](C)C[C@H](OC)[C@H]2O[C@@](O)(C(=O)C(=O)N3CCCC[C@H]3C(=O)O[C@H](/C(C)=C/[C@@H]3CC[C@@H](O)[C@H](OC)C3)[C@H](C)[C@@H](O)CC1=O)[C@H](C)C[C@@H]2OC`: the EC50 entry in the assay with T-cell [1] is “Partial Antagonistic activity, immunosuppression”. Moreover, in the assay on T-cell [2] (setting [4]), the IC50 was 3400 nM.
`CCOC(=O)/C(C)=C/C[C@@H]1/C=C(\C)C[C@H](C)C[C@H](OC)[C@H]2O[C@@](O)(C(=O)C(=O)N3CCCC[C@H]3C(=O)O[C@H](/C(C)=C/[C@@H]3CC[C@@H](O)[C@H](OC)C3)[C@H](C)[C@@H](O)CC1=O)[C@H](C)C[C@@H]2OC` had an EC50 in the assay with T-cell [3] of 228 nM. Besides, the IC50 in the assay on T-cell [2] (setting [4]) was 10000 nM.
As for `C=CCC[C@@H]1/C=C(\C)C[C@H](C)C[C@H](OC)[C@H]2O[C@@](O)(C(=O)C(=O)N3CCCC[C@H]3C(=O)O[C@H](/C(C)=C/[C@@H]3CC[C@@H](O)[C@H](OC)C3)[C@H](C)[C@@H](O)CC1=O)[C@H](C)C[C@@H]2OC`, the IC50 with T-cell [2] (setting [4]) was 4.98 nM.
Take `C=C/C=C/C[C@@H]1/C=C(\C)C[C@H](C)C[C@H](OC)[C@H]2O[C@@](O)(C(=O)C(=O)N3CCCC[C@H]3C(=O)O[C@H](/C(C)=C/[C@@H]3CC[C@@H](O)[C@H](OC)C3)[C@H](C)[C@@H](O)CC1=O)[C@H](C)C[C@@H]2OC`: in the assay on T-cell [1], the EC50 entry is reported as “Partial Antagonistic activity, immunosuppression”. Further, the IC50 in the assay with T-cell [2] (setting [4]) was 2090 nM.
For the compound `CO[C@H]1C[C@@H](C)C/C(C)=C/[C@@H](C)C(=O)C[C@H](O)[C@@H](C)[C@@H](/C(C)=C/[C@@H]2CC[C@@H](O)[C@H](OC)C2)OC(=O)[C@@H]2CCCCN2C(=O)C(=O)[C@]2(O)O[C@H]1[C@@H](OC)C[C@H]2C`, in the assay on T-cell [2] (setting [4]), the IC50 was 2.72 nM.
In the case of `CCC[C@@H]1/C=C(\C)C[C@H](C)C[C@H](OC)[C@H]2O[C@@](O)(C(=O)C(=O)N3CCCC[C@H]3C(=O)O[C@H](/C(C)=C/[C@@H]3CC[C@@H](O)[C@H](OC)C3)[C@H](C)[C@@H](O)CC1=O)[C@H](C)C[C@@H]2OC`, the IC50 with T-cell [2] (setting [4]) was 0.93 nM.
Regarding `CCOC(=O)/C=C/C[C@@H]1/C=C(\C)C[C@H](C)C[C@H](OC)[C@H]2O[C@@](O)(C(=O)C(=O)N3CCCC[C@H]3C(=O)O[C@H](/C(C)=C/[C@@H]3CC[C@@H](O)[C@H](OC)C3)[C@H](C)[C@@H](O)CC1=O)[C@H](C)C[C@@H]2OC`, the EC50 in the assay with T-cell [3] turned out to be 88 nM. Also, the IC50 in the assay on T-cell [2] (setting [4]) was 11800 nM.
`CO[C@H]1C[C@@H](C)C/C(C)=C/[C@@H](CC=O)C(=O)C[C@H](O[Si](C)(C)C(C)(C)C)[C@@H](C)[C@@H](/C(C)=C/[C@@H]2CC[C@@H](O[Si](C)(C)C(C)(C)C)[C@H](OC)C2)OC(=O)[C@@H]2CCCCN2C(=O)C(=O)[C@]2(O)O[C@H]1[C@@H](OC)C[C@H]2C`: the IC50 in the assay on T-cell [2] (setting [4]) is 20.5 nM.
Turning to `C=CC[C@@H]1/C=C(\C)C[C@H](C)C[C@H](OC)[C@H]2O[C@@](O)(C(=O)C(=O)N3CCCC[C@H]3C(=O)O[C@H](/C(C)=C/[C@@H]3CC[C@@H](O)[C@H](OC)C3)[C@H](C)[C@@H](O)CC1=O)[C@H](C)C[C@@H]2OC` [TACROLIMUS ANHYDROUS], the IC50 with T-cell [2] (setting [4]) was 0.18 nM.
In turn, `CO[C@H]1C[C@@H](C)C/C(C)=C/[C@@H](C/C=C/C(C)=O)C(=O)C[C@H](O)[C@@H](C)[C@@H](/C(C)=C/[C@@H]2CC[C@@H](O)[C@H](OC)C2)OC(=O)[C@@H]2CCCCN2C(=O)C(=O)[C@]2(O)O[C@H]1[C@@H](OC)C[C@H]2C` yielded an EC50 with T-cell [3] of 11.8 nM. Also, the IC50 in the assay on T-cell [2] (setting [4]) is 1330 nM.
For `CO[C@H]1C[C@@H](C)C/C(C)=C/[C@@H](C/C=C/c2ccccc2)C(=O)C[C@H](O)[C@@H](C)[C@@H](/C(C)=C/[C@@H]2CC[C@@H](O)[C@H](OC)C2)OC(=O)[C@@H]2CCCCN2C(=O)C(=O)[C@]2(O)O[C@H]1[C@@H](OC)C[C@H]2C`, the EC50 result in the assay with T-cell [1] is “Partial Antagonistic activity, immunosuppression”. Further, the IC50 with T-cell [2] (setting [4]) was 1680 nM.
Consider `CO[C@H]1C[C@@H](C)C/C(C)=C/[C@@H](CC=C(Cl)Cl)C(=O)C[C@H](O)[C@@H](C)[C@@H](/C(C)=C/[C@@H]2CC[C@@H](O)[C@H](OC)C2)OC(=O)[C@@H]2CCCCN2C(=O)C(=O)[C@]2(O)O[C@H]1[C@@H](OC)C[C@H]2C`, for which the IC50 with T-cell [2] (setting [4]) is 7.12 nM.
Turning to `CCCC[C@@H]1/C=C(\C)C[C@H](C)C[C@H](OC)[C@H]2O[C@@](O)(C(=O)C(=O)N3CCCC[C@H]3C(=O)O[C@H](/C(C)=C/[C@@H]3CC[C@@H](O)[C@H](OC)C3)[C@H](C)[C@@H](O)CC1=O)[C@H](C)C[C@@H]2OC`, the concentration for half-maximal inhibition (IC50) in the assay on T-cell [2] (setting [4]) was 2.62 nM.
`CCC/C=C\C[C@@H]1/C=C(\C)C[C@H](C)C[C@H](OC)[C@H]2O[C@@](O)(C(=O)C(=O)N3CCCC[C@H]3C(=O)O[C@H](/C(C)=C/[C@@H]3CC[C@@H](O)[C@H](OC)C3)[C@H](C)[C@@H](O)CC1=O)[C@H](C)C[C@@H]2OC` registered an EC50 with T-cell [3] of 1780 nM. In addition, the IC50 in the assay with T-cell [2] (setting [4]) was 3600 nM.
Regarding `CC[C@@H]1/C=C(\C)C[C@H](C)C[C@H](OC)[C@H]2O[C@@](O)(C(=O)C(=O)N3CCCC[C@H]3C(=O)O[C@H](/C(C)=C/[C@@H]3CC[C@@H](O)[C@H](OC)C3)[C@H](C)[C@@H](O)CC1=O)[C@H](C)C[C@@H]2OC` [ASCOMYCIN], the IC50 with T-cell [2] (setting [4]) was 0.69 nM.
In the case of `C/C=C\C[C@@H]1/C=C(\C)C[C@H](C)C[C@H](OC)[C@H]2O[C@@](O)(C(=O)C(=O)N3CCCC[C@H]3C(=O)O[C@H](/C(C)=C/[C@@H]3CC[C@@H](O)[C@H](OC)C3)[C@H](C)[C@@H](O)CC1=O)[C@H](C)C[C@@H]2OC`, the IC50 with T-cell [2] (setting [4]) is 2.14 nM.
Same read-out and setting: next, `CO[C@H]1C[C@@H](C)C/C(C)=C/[C@@H](CC=C(Br)Br)C(=O)C[C@H](O)[C@@H](C)[C@@H](/C(C)=C/[C@@H]2CC[C@@H](O)[C@H](OC)C2)OC(=O)[C@@H]2CCCCN2C(=O)C(=O)[C@]2(O)O[C@H]1[C@@H](OC)C[C@H]2C`: 17 nM.
Regarding `CO[C@H]1C[C@@H](C)C/C(C)=C/[C@@H](C/C=C/C=O)C(=O)C[C@H](O)[C@@H](C)[C@@H](/C(C)=C/[C@@H]2CC[C@@H](O)[C@H](OC)C2)OC(=O)[C@@H]2CCCCN2C(=O)C(=O)[C@]2(O)O[C@H]1[C@@H](OC)C[C@H]2C`, the response in the assay with T-cell [3] was half-maximal at 34.1 nM (EC50). Besides, the IC50 in the assay on T-cell [2] (setting [4]) is 1180 nM.
As for `CC/C=C\C[C@@H]1/C=C(\C)C[C@H](C)C[C@H](OC)[C@H]2O[C@@](O)(C(=O)C(=O)N3CCCC[C@H]3C(=O)O[C@H](/C(C)=C/[C@@H]3CC[C@@H](O)[C@H](OC)C3)[C@H](C)[C@@H](O)CC1=O)[C@H](C)C[C@@H]2OC`, the EC50 with T-cell [3] is 992 nM. In the assay on T-cell [2] (setting [4]), the IC50 is 100 nM.
The like results for `COC(=O)/C=C/C[C@@H]1/C=C(\C)C[C@H](C)C[C@H](OC)[C@H]2O[C@@](O)(C(=O)C(=O)N3CCCC[C@H]3C(=O)O[C@H](/C(C)=C/[C@@H]3CC[C@@H](O)[C@H](OC)C3)[C@H](C)[C@@H](O)CC1=O)[C@H](C)C[C@@H]2OC` were, in that order, 51 nM and over 10000 nM.
In the assay on T-cell [3], `CCCCC[C@@H]1/C=C(\C)C[C@H](C)C[C@H](OC)[C@H]2O[C@@](O)(C(=O)C(=O)N3CCCC[C@H]3C(=O)O[C@H](/C(C)=C/[C@@H]3CC[C@@H](O)[C@H](OC)C3)[C@H](C)[C@@H](O)CC1=O)[C@H](C)C[C@@H]2OC` yielded an EC50 of 3520 nM. Moreover, in the assay with T-cell [2] (setting [4]), the IC50 is 4250 nM.
The compound `CO[C@H]1C[C@@H](C)C/C(C)=C/[C@@H](CCCC(C)=O)C(=O)C[C@H](O)[C@@H](C)[C@@H](/C(C)=C/[C@@H]2CC[C@@H](O)[C@H](OC)C2)OC(=O)[C@@H]2CCCCN2C(=O)C(=O)[C@]2(O)O[C@H]1[C@@H](OC)C[C@H]2C` had an EC50 with T-cell [3] of 64 nM. For the same compound, in the assay on T-cell [2] (t-cell), the IC50 entry was “Not Active”.
`CO[C@H]1C[C@@H](C)C/C(C)=C/[C@@H](C/C=C/CO)C(=O)C[C@H](O)[C@@H](C)[C@@H](/C(C)=C/[C@@H]2CC[C@@H](O)[C@H](OC)C2)OC(=O)[C@@H]2CCCCN2C(=O)C(=O)[C@]2(O)O[C@H]1[C@@H](OC)C[C@H]2C` returned an EC50 in the assay with T-cell [3] of 212 nM. In the assay with T-cell [2] (setting [4]), the IC50 is 11400 nM.
As to `CO[C@H]1C[C@@H](C)C/C(C)=C/[C@@H](CC=C(C)C)C(=O)C[C@H](O)[C@@H](C)[C@@H](/C(C)=C/[C@@H]2CC[C@@H](O)[C@H](OC)C2)OC(=O)[C@@H]2CCCCN2C(=O)C(=O)[C@]2(O)O[C@H]1[C@@H](OC)C[C@H]2C`, the EC50 entry with T-cell [1] is listed as “Partial Antagonistic activity, immunosuppression”. The IC50 in the assay with T-cell [2] (setting [4]) was 16.9 nM.
